From US20120165376A1, “STABILIZED MICROBICIDAL COMPOSITION” (priority 2010, published 2012)

What was measured:
Assay type in all cases: physicochemical
[1] = Storage stability of formulations having 20% DBNPA and 6% BNPD: oven at 45° C., loss after 28 days
Method: These formulations were prepared and placed in an oven at 45° C. and analyzed for loss of the biocides after 28 days.

[2] = Storage stability of formulations having 20% DBNPA, 6% BNPD and 1.25% CMI/MI (3:1): oven at 40° C., loss of biocides after 60 days; settings: 6% BNPD
Method: These formulations were prepared from salt-free CMI/MI biocide, except as otherwise indicated. They were placed in an oven at 40° C. and analyzed for loss of the biocides after 60 days.

[3] = Storage stability of formulations having 20% DBNPA and 0.25% CMI/MI (3:1): oven at 45° C., loss after 28 days
Method: These formulations were prepared, using salt-free CMI/MI and placed in an oven at 45° C. and analyzed for loss of the biocides after 28 days.

[4] = Storage stability of formulations having 10-20% DBNPA, without BNPD or CMI/MI: oven at 45° C., loss after 28 days
Method: These were prepared and placed in an oven at 45° C. and analyzed for loss of the biocides after 28 days. […]=diethylene glycol monomethyl ether.

[5] = glycerin 0%, water 20%, DPG 54, 20% DBNPA
[6] = glycerin 0%, water 20%, TetEG 54, 20% DBNPA
[7] = glycerin 10%, water 5%, DPG 60, 20% DBNPA
[8] = glycerin 10%, water 5%, TetEG 60, 20% DBNPA
[9] = glycerin 10%, water 10%, DPG 54, 20% DBNPA
[10] = glycerin 10%, water 10%, TetEG 54, 20% DBNPA
[11] = glycerin 20%, water 10%, DPG 44, 20% DBNPA
[12] = glycerin 20%, water 10%, TEG 44, 20% DBNPA
[13] = glycerin 20%, water 10%, TetEG 44, 20% DBNPA
[14] = glycerin 30%, water 5%, DPG 39, 20% DBNPA
[15] = glycerin 30%, water 5%, TetEG 39, 20% DBNPA
[16] = glycerin 30%, water 10%, DPG 34, 20% DBNPA
[17] = glycerin 30%, water 10%, TetEG 34, 20% DBNPA
[18] = glycerin 30%, water […]%, DPG 29, 20% DBNPA, result believed to be erroneous
[19] = glycerin 30%, water […]%, TetEG 29, 20% DBNPA
[20] = glycerin 0%, water 10%, TEG-mono-butyl ether 59.5%
[21] = glycerin 0%, water 20%, TEG 49.5%
[22] = glycerin 0%, water 20%, TEG-mono-butyl ether 49.5%
[23] = glycerin 0%, water 30%, TEG 39.5%
[24] = glycerin 0%, water 30%, TEG-mono-butyl ether 39.5%
[25] = glycerin 10%, water 10%, TEG 49.5%
[26] = glycerin 10%, water 20%, TEG-mono-butyl ether 39.5%
[27] = glycerin 10%, water 30%, TEG-mono-butyl ether 29.5%
[28] = glycerin 20%, water 10%, TEG 39.5%
[29] = glycerin 20%, water 20%, TEG 29.5%

O=[N+]([O-])C(Br)(CO)CO [BNPD, 2-bromo-2-nitro-1,3-propanediol]
BNPD loss, % [1, 5]: 1.5% | BNPD loss, % ([1]; glycerin 0%, water 20%, TEG 54, 20% DBNPA): 7% | BNPD loss, % [1, 6]: 0% | BNPD loss, % [1, 7]: 1% | BNPD loss, % [1, 8]: 6% | BNPD loss, % [1, 9]: 0.5% | BNPD loss, % [1, 10]: 8.5% | BNPD loss, % [1, 11]: 1.5% | BNPD loss, % [1, 12]: 4% | BNPD loss, % [1, 13]: 3% | BNPD loss, % [1, 14]: 1.5% | BNPD loss, % [1, 15]: 1.5% | BNPD loss, % [1, 16]: 1% | BNPD loss, % [1, 17]: 2% | BNPD loss, % [1, 18]: 12.5^1% | BNPD loss, % [1, 19]: 3.5% | BNPD loss, % ([2]; glycerin 0%, water 10%, TEG 59.5%): 3% | BNPD loss, % [2, 20]: 0% | BNPD loss, % [2, 21]: 1% | BNPD loss, % [2, 22]: 0% | BNPD loss, % [2, 23]: 3% | BNPD loss, % [2, 24]: 3% | BNPD loss, % [2, 25]: 3% | BNPD loss, % ([2]; glycerin 10%, water 10%, TEG-mono-butyl ether 49.5%): 3% | BNPD loss, % ([2]; glycerin 10%, water 20%, TEG 39.5%): 3% | BNPD loss, % [2, 26]: 3% | BNPD loss, % [2, 27]: 4% | BNPD loss, % [2, 28]: 3% | BNPD loss, % ([2]; glycerin 20%, water 10%, TEG-mono-butyl ether 39.5%): 3% | BNPD loss, % [2, 29]: 4%

N#CC(Br)(Br)C(N)=O [DBNPA, 2,2-dibromo-3-nitrilopropionamide]
DBNPA loss, % ([3]; glycerin 0%, water 20%, DPG 59, 20% DBNPA, 0.25% CMI/MI (3:1)): 10% | DBNPA loss, % ([3]; glycerin 0%, water 20%, TetEG 59, 20% DBNPA, 0.25% CMI/MI (3:1)): 4% | DBNPA loss, % ([3]; glycerin 10%, water 5%, DPG 64, 20% DBNPA, 0.25% CMI/MI (3:1), result believed to be erroneous): 27^1% | DBNPA loss, % ([3]; glycerin 10%, water 5%, TetEG 64, 20% DBNPA, 0.25% CMI/MI (3:1)): 2.5% | DBNPA loss, % ([3]; glycerin 10%, water 10%, DPG 59, 20% DBNPA, 0.25% CMI/MI (3:1)): 7% | DBNPA loss, % ([3]; glycerin 10%, water 10%, TetEG 59, 20% DBNPA, 0.25% CMI/MI (3:1)): 3.5% | DBNPA loss, % ([3]; glycerin 20%, water 10%, DPG 49, 20% DBNPA, 0.25% CMI/MI (3:1)): 3.5% | DBNPA loss, % ([3]; glycerin 20%, water 10%, TEG 49, 20% DBNPA, sample had 1% CMI/MI): 6% | DBNPA loss, % ([3]; glycerin 20%, water 10%, TetEG 49, 20% DBNPA, 0.25% CMI/MI (3:1)): 3.5% | DBNPA loss, % ([3]; glycerin 30%, water 5%, DPG 44, 20% DBNPA, 0.25% CMI/MI (3:1)): 6% | DBNPA loss, % ([3]; glycerin 30%, water 5%, TetEG 44, 20% DBNPA, 0.25% CMI/MI (3:1)): 6% | DBNPA loss, % ([3]; glycerin 30%, water 10%, DPG 39, 20% DBNPA, 0.25% CMI/MI (3:1)): 4% | DBNPA loss, % ([3]; glycerin 30%, water 10%, TetEG 39, 20% DBNPA, 0.25% CMI/MI (3:1)): 2.5% | DBNPA loss, % ([3]; glycerin 30%, water 20%, DPG 29, 20% DBNPA, 0.25% CMI/MI (3:1)): 4% | DBNPA loss, % ([3]; glycerin 30%, water 20%, TetEG 29, 20% DBNPA, 0.25% CMI/MI (3:1)): 3.5% | DBNPA loss, % ([3]; glycerin 30%, water […]%, DPG 34, 20% DBNPA, 0.25% CMI/MI (3:1)): 3.5% | DBNPA loss, % ([3]; glycerin 30%, water […]%, TetEG 34, 20% DBNPA, 0.25% CMI/MI (3:1)): 3% | DBNPA loss, % [1, 5]: 3.5% | DBNPA loss, % [1, 6]: 2% | DBNPA loss, % [1, 7]: 7% | DBNPA loss, % [1, 8]: 5% | DBNPA loss, % [1, 9]: 6% | DBNPA loss, % [1, 10]: 7% | DBNPA loss, % [1, 11]: 3% | DBNPA loss, % [1, 12]: 7% | DBNPA loss, % [1, 13]: 7% | DBNPA loss, % [1, 14]: 2% | DBNPA loss, % [1, 15]: 2.5% | DBNPA loss, % [1, 16]: 3% | DBNPA loss, % [1, 17]: 3% | DBNPA loss, % [1, 18]: 14^1% | DBNPA loss, % [1, 19]: 4.5% | DBNPA loss, % [2, 20]: 40% | DBNPA loss, % [2, 21]: 10% | DBNPA loss, % [2, 22]: 18% | DBNPA loss, % [2, 23]: 16% | DBNPA loss, % [2, 24]: 18% | DBNPA loss, % [2, 25]: 6% | DBNPA loss, % [2, 26]: 14% | DBNPA loss, % [2, 27]: 18% | DBNPA loss, % [2, 28]: 5% | DBNPA loss, % [2, 29]: 14% | DBNPA loss, % ([4]; glycerin 30%, water 5%, TEG 45, 20% DBNPA): 3^ % | DBNPA loss, % ([4]; glycerin 45%, water 5%, TEG 30, 20% DBNPA): 3^ % | DBNPA loss, % ([4]; glycerin 65%, water […]%, DEGMME 10, only 10% DBNPA): 95^1% | DBNPA loss, % ([4]; glycerin 65%, water […]%, TEG 10, only 10% DBNPA): 3^1% | DBNPA loss, % ([4]; glycerin 65%, water […]%, TetEG 10, only 10% DBNPA): 95^1%
